{"source": "patent US20240197761A1", "about": "“FUCOSYLATION AND IMMUNE MODULATION IN CANCER” (H. LEE MOFFITT CANCER CENTER AND RESEARCH INSTITUTE, INC., priority 2021, published 2024)", "key": {"SW1 tumors": {"tested_on": "SW1 tumors", "experiment": "Immunodepletion mouse model (CD4+ or CD8+ T cell depletion), SW1", "type": "in vivo, C3H/HeN mice", "description": "(§1) Total TILs were gated first to single cells (based on forward scatter height vs width, followed by side scatter height vs. width). Live cells were gated from the Zombie negative population from the population above. TILs were gated based on splenocyte size from a control spleen. Individual immune subpopulations were sub-gated from the total TIL population using the following staining criteria: CD3+ for CD3+ T cells; CD3+/CD4+/CD8− for CD4+T cells; CD3+/CD4−/CD8+ for CD8+ T cells, CD11c+/CD11b+ for DCs; either NK1.1 (for C57/BL6 mice) or DX5 (for C3H/HeJ) for NK cells; CD11b+/GR1+ for MDSC-like cells; and F4/80+ for macrophages. Single-cell suspensions from tumor and spleen tissue were stained with Live/Dead Zombie NIR (Biolegend, (San Diego, CA)) at 1:1,000 in PBS for 20 min. Cell suspensions were spun down and stained with the following with antibodies at 0.5 μg/ml per antibody: APC anti-mouse CD3, Pacific Blue anti-mouse CD4, BV785 anti-mouse CD8, PerCP anti-mouse CD25, FITC anti-mouse F4/80, PeCy7 anti-mouse CD11c, PE anti-mouse NK1.1 or PE anti-mouse DX5, and PerCP-Cy5.5 anti-mouse CD11 b. After staining, the cells were washed and fixed (2% formaldehyde), followed by another wash and flow cytometric analysis. The compensation controls were prepared using 0.5 μg/mL of each antibody with UltraComp eBeads, (ThermoFisher Scientific (Waltham, MA)). All samples were subject to flow cytometric profiling using a LSR Flow Cytometer (BD Biosciences (San Jose, CA)) and analysis as indicated using FlowJo software (BD Biosciences (San Jose, CA)).\nAll animals were housed at the Vincent A. Stabile Research building animal facility at H. Lee Moffitt Cancer Center & Research Institute, which is fully accredited by the Association for Assessment and Accreditation of Laboratory Animal Care International (AAALAC, #434), and are managed in accordance with the Guide for the Care and Use of Laboratory Animals (“The Guide”), the Animal Welfare Regulations Title 9 Code of Federal Regulations Subchapter A, “Animal Welfare”, Parts 1-3 (AWR), the Public Health Service Policy on Humane Care and Use of Laboratory Animals (PHS Policy), and by the USF Institutional Animal Care and Use Committee's Principles and Procedures of Animal Care and Use (IACUC Principles). The experiments and protocols detailed in this study received institutional approval by the Moffitt IACUC (RIS00001625). Four-to-six-week-old female C3H/HeN and male C57BL6 mice were purchased from Charles Rivers Laboratories for the indicated experiments. Four-to-six-week-old male NSG mice from the Lau laboratory breeding colony were used for the indicated experiments. […] Mouse tumor volumes were measured using length, width and depth divided by 2. […]"}, "[1]": {"tested_on": "NRAS G13D-mutant mouse melanoma (SW1) tumors", "experiment": "SW1 mouse melanoma model ± oral L-fucose: tumor growth, tumor fucosylation, itIC and splenic flow cytometric profiling", "type": "in vivo, C3H/HeN mice", "conditions": "oral L-fuc", "method": "Tumors of SW1 or SM1 melanoma cells from […] or C57BL/6 mice, respectively) were digested using 1× tumor digest buffer (0.5 mg/mL Collagenase I, 0.5 mg/mL Collagenase IV, 0.25 mg/mL Hyalyronidase V, 0.1 mg/mL DNAse I in HBSS (Millipore Sigma (St. Louis, MO)). Tumors were homogenized using the Miltenyi MACs dissociator. Red blood cells were lysed using ACK lysis buffer (Life Technologies, (Grand Island, NY)). Tumor homogenate cells were counted using a standard hemocytometer.\nas §1\nFor assessment of mouse tumor fucosylation, FFPE tumor sections were immunostained with FITC-conjugated AAL lectin (0.4 μg/mL, Vector Laboratories (Burlingame, CA)) and rabbit anti-Mart1+rabbit anti-S100 (melanoma marker cocktail). The slides were mounted with Vectashield+DAPI (Vector Laboratories (Burlingame, CA)). Four representative microscopy images per tumor were acquired using a Keyence BZ-X710, and images were process and analyzed using FIJI (NIH) as follows: melanoma marker-positive regions were assigned as regions of interest (ROI) in which we measured Integrated density of AAL signal. Integrated densities of control tumors were assigned as 1, and Integrated AAL density values of experimental tumors were divided by control to produce relative fold changes and plotted as column charts. […]"}}}
{"smiles": "C[C@H](O)[C@@H](O)[C@@H](O)[C@H](O)C=O", "note": "[L-fucose]", "values": [{"measurement": "reduction of tumor growth", "setting": "SW1 tumors; CD4+T cell depletion", "value": "completely abrogated"}, {"measurement": "L-fuc-induced increases in total itICs (incl. NK, DC, CD8+T cells)", "setting": "SW1 tumors; CD4+T cell-depletion", "value": "blocked"}, {"measurement": "reduction of tumor growth", "setting": "SW1 tumors; CD8+T cell-depleted mice", "value": "> 50", "unit": "%"}, {"measurement": "reduction of tumor growth", "setting": "SW1 tumors; control (PBS-injected) mice", "value": "> 50", "unit": "%"}, {"measurement": "CD4+ and CD8+ T cells of total itICs", "setting": "[1]", "value": "doubled"}, {"measurement": "increase of total itICs", "setting": "[1]", "value": "10-50 fold"}, {"measurement": "increase of tumor fucosylation", "setting": "[1]", "value": "~2", "unit": "fold"}, {"measurement": "reduction of tumor growth", "setting": "[1]", "value": "~50", "unit": "%"}, {"measurement": "splenic lymphocyte profiles", "setting": "[1]", "value": "without altering"}]}
